Results: patent US20220089609A1, “SUBSTITUTED QUINAZOLINONE DERIVATIVES AND THEIR USE AS POSITIVE ALLOSTERIC MODULATORS OF MGLUR4” (DOMAIN THERAPEUTICS, priority 2018, published 2022)
Structures can show the parent of a compound that is named as a salt.

Biological target: T1, human mGluR4 (hmGluR4) (Homo sapiens, UniProt Q14833)
T1 construct: expressed in transfected cells; host or cells: HEK-293 cells, transient co-transfection by electroporation
Test: Calcium assay EC50 determination, positive allosteric modulator activity on hmGluR4 transiently over-expressed in HEK-293 cells
Format: cell-based
Conditions: PAM mode with EC20 glutamate; hmGluR4 in HEK-293 cells; intracellular calcium (Fluo4AM); read-out: mGluR4 positive allosteric modulator activity, half maximal effective concentration (EC50)
Method: Compounds are tested successively for their agonist and positive allosteric modulator activities on human mGluR4 (hmGluR4) transiently over-expressed in HEK-293 cells. Compounds exert agonist activity if, by themselves in absence of glutamate, they are able to activate hmGluR4; and they exert positive allosteric modulator activity if they increase the action of glutamate.
HEK-293 cells are maintained in Modified Eagle's Medium supplemented with 10% Foetal Calf Serum, 1% Penicillin/Streptomycin and 1% non-essential amino acids at 37° C./5% CO2.
Cells are co-transfected by electroporation with four DNA plasmids encoding hmGluR4, a chimeric G protein allowing redirection of the activation signal to intracellular calcium pathway, and glutamate transporters to decrease extracellular glutamate concentration so as to limit receptor desensitization. After transfection, cells are cultured for 24 h at 37° C./5% CO2.
Calcium Assay EC50 determination
Receptor activity is detected by changes in intracellular calcium measured using the fluorescent Ca^2+ sensitive dye, Fluo4AM (Molecular Probes).
On the day of the assay, culture medium is aspirated and replaced during 3 hours by medium without serum supplemented with 1% Glutamax, 1% Penicillin/Streptomycin and 1% non-essential amino acids. Then, cells are washed with freshly prepared buffer B (HBSS 1× (PAA), Hepes 20 mM, MgSO4-7H2O 1 mM, Na2CO3 3.3 mM, CaCl2-2H2O 1.3 mM, 0.1% BSA, Probenecid 2.5 mM) and loaded at 37° C. in 5% CO2 for 1.5 hours with buffer B containing 1 μM Fluo4AM, 0.1 mg/mL Pluronic Acid, 7 μg/mL Glutamate Pyruvate Transaminase and 2 mM sodium pyruvate. Afterwards cells are washed twice with buffer B. Then cells are detached using StemPro Accutase (Fisher Scientific), resuspended in buffer B and seeded in 384 well plate at a density of 30,000 cells per well. Addition of compounds and intracellular Ca^2+ measurements (excitation 485 nm, emission 525 nm) are performed by the fluorescence microplate reader FLIP^Tetra (Molecular Devices).
Agonist and positive allosteric modulator activities of compounds are consecutively evaluated on the same cell plate. Agonist activity is first tested during 10 minutes with the addition of compound alone on the cells. Then, cells are stimulated by an EC20 glutamate concentration and fluorescence is recorded for additional 3 minutes. EC20 glutamate concentration is the concentration giving 20% of the maximal glutamate response. Agonist or positive allosteric modulator activity(ies) are evaluated in comparison to basal signals evoked by buffer B or EC20 glutamate alone, respectively.

T1 sequence (Q14833 33-912): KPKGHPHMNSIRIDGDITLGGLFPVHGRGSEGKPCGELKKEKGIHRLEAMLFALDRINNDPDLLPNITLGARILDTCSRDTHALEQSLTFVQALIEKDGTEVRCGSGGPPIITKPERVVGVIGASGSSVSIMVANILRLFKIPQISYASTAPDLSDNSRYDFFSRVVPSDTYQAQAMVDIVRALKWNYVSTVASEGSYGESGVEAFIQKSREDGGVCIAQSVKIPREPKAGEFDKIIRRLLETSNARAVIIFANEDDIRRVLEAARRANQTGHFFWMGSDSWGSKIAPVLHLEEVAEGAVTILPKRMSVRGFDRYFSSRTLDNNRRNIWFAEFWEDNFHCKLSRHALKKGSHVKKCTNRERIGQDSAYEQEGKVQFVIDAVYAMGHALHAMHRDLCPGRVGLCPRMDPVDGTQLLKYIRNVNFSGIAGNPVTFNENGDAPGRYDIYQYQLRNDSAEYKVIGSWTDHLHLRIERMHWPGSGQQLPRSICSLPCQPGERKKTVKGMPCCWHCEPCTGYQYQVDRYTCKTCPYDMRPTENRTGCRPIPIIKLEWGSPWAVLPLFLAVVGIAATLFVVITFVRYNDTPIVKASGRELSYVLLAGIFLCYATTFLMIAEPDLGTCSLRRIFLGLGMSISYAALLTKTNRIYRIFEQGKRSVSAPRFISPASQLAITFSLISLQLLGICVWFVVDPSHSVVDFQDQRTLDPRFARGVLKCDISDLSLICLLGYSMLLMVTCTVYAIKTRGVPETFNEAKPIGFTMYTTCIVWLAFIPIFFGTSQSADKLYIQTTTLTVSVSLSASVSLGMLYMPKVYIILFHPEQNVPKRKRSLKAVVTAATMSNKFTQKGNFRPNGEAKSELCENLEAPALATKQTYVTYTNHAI

EC50 | SMILES
≤ 0.1 µM | Cc1cc(N2CCC3(CCCOC3)C2)cc2c(=O)[nH]c(-c3cc4ccsc4cn3)nc12 (centres unmarked) [Compound 92, 8-Methyl-6-(7-oxa-2-aza-spiro[4.5]dec-2-yl)-2-thieno[2,3-c]pyridin-5-yl-3H-quinazolin-4-one]
≤ 0.1 µM | Cc1cc(N2CCC3(CCOCC3)C2)cc2c(=O)[nH]c(-c3cc4ccsc4cn3)nc12 [Compound 93, 8-Methyl-6-(8-oxa-2-aza-spiro[4.5]dec-2-yl)-2-thieno[2,3-c]pyridin-5-yl-3H-quinazolin-4-one]
0.1 to 1 µM | Cc1cc(NCC(C)(C)O)cc2c(=O)[nH]c(-c3cc4ccsc4cn3)nc12 [Compound 94, 6-(2-Hydroxy-2-methyl-propylamino)-8-methyl-2-thieno[2,3-c]pyridin-5-yl-3H-quinazolin-4-one]
≤ 0.1 µM | CC(=O)N1CCCC(CCOc2cc(C)c3nc(-c4cc5ccsc5cn4)[nH]c(=O)c3c2)C1 (centres unmarked) [Compound 96, 6-[2-(1-Acetyl-piperidin-3-yl)-ethoxy]-8-methyl-2-thieno[2,3-c]pyridin-5-yl-3H-quinazolin-4-one]
0.1 to 1 µM | CC(=O)N1CCN(CCOc2cc(C)c3nc(-c4cc5ccsc5cn4)[nH]c(=O)c3c2)CC1 [Compound 97, 6-[2-(4-acetyl-piperazin-1-yl)-ethoxy]-8-methyl-2-thieno[2,3-c]pyridin-5-yl-3H-quinazolin-4-one hydrochloride]
0.1 to 1 µM | Cc1cc(CCCN2CCOCC2)cc2c(=O)[nH]c(-c3cc4ccsc4cn3)nc12 [Compound 99, 8-Methyl-6-(3-morpholin-4-yl-propyl)-2-thieno[2,3-c]pyridin-5-yl-3H-quinazolin-4-one hydrochloride]
0.1 to 1 µM | Cc1cc(OCCCc2ccncc2)cc2c(=O)[nH]c(-c3cc(C(F)(F)F)ccn3)nc12 [Compound 101, 8-Methyl-6-(3-pyridin-4-yl-propoxy)-2-(4-trifluoromethyl-pyridin-2-yl)-3H-quinazolin-4-one hydrochloride]
≤ 0.1 µM | Cc1cc(OCC2CCOC2)cc2c(=O)[nH]c(-c3cc(C(F)(F)F)ccn3)nc12 (centres unmarked) [Compound 102, 8-Methyl-6-(tetrahydro-furan-3-ylmethoxy)-2-(4-trifluoromethyl-pyridin-2-yl)-3H-quinazolin-4-one]
0.1 to 1 µM | CCC(=O)N1CC(Oc2cc(C)c3nc(-c4cc(C(F)(F)F)ccn4)[nH]c(=O)c3c2)C1 [Compound 103, 8-Methyl-6-(1-propionyl-azetidin-3-yloxy)-2-(4-trifluoromethyl-pyridin-2-yl)-3H-quinazolin-4-one]
0.1 to 1 µM | Cc1cc(OC2CCN(C3COC3)CC2)cc2c(=O)[nH]c(-c3cc(C(F)(F)F)ccn3)nc12 [Compound 104, 8-Methyl-6-(1-oxetan-3-yl-piperidin-4-yloxy)-2-(4-trifluoromethyl-pyridin-2-yl)-3H-quinazolin-4-one]
≤ 0.1 µM | Cc1cc(N2CCC3(CCOCC3)CC2)cc2c(=O)[nH]c(-c3cc(C(F)(F)F)ccn3)nc12 [Compound 105, 8-Methyl-6-(3-oxa-9-aza-spiro[5.5]undec-9-yl)-2-(4-trifluoromethyl-pyridin-2-yl)-3H-quinazolin-4-one]
≤ 0.1 µM | Cc1cc(OCCCc2ccncc2)cc2c(=O)[nH]c(-c3cc4cccn4cn3)nc12 [Compound 106, 8-methyl-6-(3-pyridin-4-yl-propoxy)-2-pyrrolo[1,2-c]pyrimidin-3-yl-3H-quinazolin-4-one hydrochloride]
≤ 0.1 µM | Cc1cc(OCC2CCOC2)cc2c(=O)[nH]c(-c3cc4cccn4cn3)nc12 (centres unmarked) [Compound 107, 8-methyl-2-pyrrolo[1,2-c]pyrimidin-3-yl-6-(tetrahydro-furan-3-ylmethoxy)-3H-quinazolin-4-one]
≤ 0.1 µM | Cc1cc(N2CCC3(CCOCC3)CC2)cc2c(=O)[nH]c(-c3cc4cccn4cn3)nc12 [Compound 108, 8-methyl-6-(3-oxa-9-aza-spiro[5.5]undec-9-yl)-2-pyrrolo[1,2-c]pyrimidin-3-yl-3H-quinazolin-4-one]
